Assay results: US20100068150A1, “Selective Caspase Inhibitors” (The Board of Trustees of the Leland Stanford Junior …, priority 2006, published 2010)

Columns and labels:
[1] = test system: endogenous caspases-3, 7, 9 and exogenous recombinant caspase-8 in 293 extracts; assay: Labeling in 293 extracts with exogenous recombinant caspase-8 and cytochrome c/dATP; format: binding
Description: (a.) Hypotonic 293 cytosolic extracts were induced to undergo intrinsic apoptosis by addition of cytochrome c/dATP. […] Samples were analyzed by SDS-PAGE followed by biotin blotting using streptavidin-HRP. (b) The identity of individual caspases was confirmed via immunoprecipitation using specific anti-sera for caspases-3, 7 and 9 (also see FIG. 5B for immunoprecipitation of caspases-3 and 7 after KMB01 labeling). Extracts (293) were activated with cytochrome c/dATP for 10 minutes, labeled by addition of indicated probes (100 nM final concentration for bAB06 and bAB13 and 10 μM final concentration for KMB01) and labeled caspases precipitated using specific anti-sera as described in the Methods section. I is input, P is pellet, S is supernatant after specific precipitation. […] Labeling of caspases was monitored by SDS-PAGE followed by biotin blotting with streptavidin-HRP. […]
Selective labeling of endogenous caspases in cell extracts and live cells with active site probes was carried out as follows: Hypotonic 293 cytosolic extracts were induced to undergo intrinsic apoptosis by addition of cytochrome c/dATP. […] Samples were analyzed by SDS-PAGE followed by biotin blotting using streptavidin-HRP. […] Labeling of caspases was monitored by SDS-PAGE followed by biotin blotting with streptavidin-HRP. […]
Protein concentration of hypotonic extracts was measured using a standard Bradford Protein Assay (BioRad). […]

Caspase-9 = molecular target: T1, Caspase-9 (Homo sapiens, UniProt P55211); assay: Kinetic compound screening, progress curve method, caspase-9; format: biochemical; settings: NI = no inhibition at concentrations tested; for Ki(app) Caspase-9: Table III, Ki(app) = Kass or Kobs/I, 50 nM active caspase-9; for Caspase-9 Ki (app): Table IV
T1 sequence (P55211 1-416): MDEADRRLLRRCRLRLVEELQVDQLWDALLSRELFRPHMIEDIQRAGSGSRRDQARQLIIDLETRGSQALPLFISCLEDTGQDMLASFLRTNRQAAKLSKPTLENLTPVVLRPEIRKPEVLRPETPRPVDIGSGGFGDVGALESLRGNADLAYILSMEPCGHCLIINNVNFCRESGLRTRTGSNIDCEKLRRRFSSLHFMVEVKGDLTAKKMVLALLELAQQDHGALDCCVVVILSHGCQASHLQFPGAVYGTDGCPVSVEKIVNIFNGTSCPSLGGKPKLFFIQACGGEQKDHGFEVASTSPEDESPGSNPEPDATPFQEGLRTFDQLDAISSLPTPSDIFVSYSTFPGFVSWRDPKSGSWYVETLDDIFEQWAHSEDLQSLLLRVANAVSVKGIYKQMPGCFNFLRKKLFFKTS
Method in brief: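 Progress-curve method under pseudo-first-order kinetics, giving Ki(app) (kobs/I, M^−1s^−1), in caspase reaction buffer. Active enzyme at 5 nM (caspase-3, -7), 10 nM (caspase-8) or 50 nM (caspase-9), preactivated at 37 °C for 5, 10 or 40 min respectively. Some caspase-9 compounds also run with 1 M sodium citrate replacing sucrose.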

Row | Ki(app) Caspase-9 (Caspase-9) | Caspase-9 Ki (app) (Caspase-9) | Compound | inhibition of caspases in 293 extracts with added caspase-8 ([1]; AB06 10 μM added in conjunction with cytochrome c/dATP) | labeling of caspases in 293 extracts with added caspase-8 ([1]; recombinant caspase-8 100 nM, cytochrome c/dATP, probes 10 μM, 30 min)
1 | – | – | Cc1cccc(C)c1C(=O)OCC(=O)[C@H](CC(=O)O)NC(=O)[C@@H](NC(=O)[C@H](Cc1ccncc1)NC(=O)[C@H](CC(=O)O)NC(=O)Cc1ccc(O)c([N+](=O)[O-])c1)C(C)C [AB06, Np-D-3-V-D-DMBA] | caspases-3 and 7 were selectively inhibited | –
2 | 175,210 M^−1s^−1 | 210 M⁻¹ s⁻¹ | Bio-EVD-AOMK [KMB01, reference compound] | – | strong labeling of the endogenous caspases-3, 7, and 9 as well as the exogenously added caspase-8
3 | <5,000 M^−1s^−1 | <5,000 M-1s-1 | Cc1cccc(C)c1C(=O)OCC(=O)[C@H](CC(=O)O)NC(=O)[C@@H](NC(=O)[C@H](CCC(=O)O)NC(=O)[C@H](CC(=O)O)NC(=O)Cc1ccc(O)c([N+](=O)[O-])c1)C(C)C [AB09, Np-D-E- V-D-DMBA] | – | –
